Common to all, as to assay type: cell-based
The test system of series [1] is Colony Forming Unit—Megakaryocyte (CFU-Mk). Put plainly: Colony forming unit (CFU) assay, human bone marrow cells. The note with it: for effect of receptor antagonist on substance P-enhanced platelet colony formation: antagonist in the presence of substance P. An excerpt:
(§1) This study examined the formation of three different progenitor cell populations, erythrocytes, platelets and granulocytes/macrophages.
(§2) Bone marrow aspirates were obtained from three healthy donors between 18 and 35 years of age following appropriate guidelines and protocols. Bone marrow mononuclear cells were isolated using a Ficoll-Hypaque density gradient, separating red blood cells from the others. Cells from each donor were processed independently and used for setting up individual experiments to assess the effects, if any, of donor variability.
(§3) Cells (1×10^5) were plated in duplicate onto 35 mm tissue culture plates for each condition tested and set up as described in Rameshwar et al. 1993, Blood. 81:2, 391-398. Erythroid and granulocyte/macrophage cultures were plated using methylcellulose and megakaryocyte cultures (platelet precursors) used a collagen-based support (StemCell Technologies, Vancouver, Canada, catalogue #04973). […] CP 99,994 (Pfizer) was used as a neurokinin-1 receptor antagonist and SR 48968 (Sanofi) was used as a neurokinin-2 receptor antagonist.
Cultures were set up with limited cytokines and growth factors which would promote differentiation of one progenitor per plate.
Each compound was dissolved in endotoxin-free water to a final concentration of 0.1 mM. After reconstitution, the solutions were aliquoted into siliconized microcentrifuge tubes and exposed to nitrogen gas, eliminating oxygen in the head space of the enclosure. All aliquots were stored at −20° C. until use and used within one month of reconstitution. See, Rameshwar, et al. 1997, J. Immunol.
Cultures were incubated at 37° C. with 5% CO2 for approximately 14 days, after which colonies were manually enumerated using a microscope. To count megakaryocyte colonies, the cells were fixed followed by a staining procedure using the following antibodies: primary—mouse anti-human GP11b/111a, isotype control—mouse anti-trinitrophenyl, secondary—biotin-conjugated goat anti-mouse IgG, detection—avidin-alkaline phosphatase conjugate. […]

Series [2] deals with human bone marrow mononuclear cell (MNC) fraction. Put plainly: CFC assay, multi-donor study, all seven cell populations (overall toxicity). Particulars: three donors, highest doses (up to 1 nM). The protocol: Compound was dissolved in 1 ml of Iscove's Modified Dulbecco's Medium (IMDM) and a serial dose response was prepared in single log doses so that the final dose in culture ranged from 1 nanoMolar (nM) to 1×10^−16 M. All working dilutions were performed in IMDM. Cell cultures from each donor were started at different times and a fresh solution of Homspera® was prepared for each individual experiment.
Starting with human bone marrow aspirate, the mononuclear cell (MNC) fraction from each aspirate was separated from whole bone marrow using Ficoll-Paque density gradient centrifugation.
The colony-forming cell (CFC) assay was performed using optimal growth factor/cytokine concentrations. The reagents and conditions were similar to those used in Example 3, except that no ATP measurements were performed. The MNC fraction from each bone marrow donor was dissolved in IMDM and cultured at a concentration of 5,000 cells/well in a Culture Master Mix (HemoGenix, Inc., Colorado Springs, Colo.). […]
The mean, standard deviation and percent coefficient of variation was calculated for all groups, transposed and plotted as a function of donor. The percent from control values were calculated and also plotted as a function of donor. […]

Series [3] concerns Colony Forming Unit—Erythroid (CFU-E). The series can be described thus: Colony forming unit (CFU) assay, human bone marrow cells. The note with it: about 14 days; FIG. 2.
Source text: as §1, §2, §3
(§4) The cytokines and growth factors added to Blast Forming Unit—Erythroid (BFU-E) cultures, Colony Forming Unit—Erythroid (CFU-E) cultures, and Colony Forming Unit—Granulocyte/Macrophage (CFU-GM) cultures were added as defined by proliferative units. […]

The subject of series [4] is Blast Forming Unit—Erythroid (BFU-E). The description is as above. Particulars: about 14 days; three donors; FIG. 1.
Source text: as §1, §2, §3, §4

In the case of `COc1ccccc1CN[C@H]1CCCN[C@H]1c1ccccc1` [CP-99,994], the “effect of receptor antagonist on substance P-enhanced platelet colony formation” value in series [1] is listed as “blocks the stimulatory activity of substance P”.

For the compound `CC(C)C[C@H](NC(=O)CN(C)C(=O)[C@H](Cc1ccccc1)NC(=O)[C@H](Cc1ccccc1)NC(=O)[C@H](CCC(N)=O)NC(=O)[C@H](CCC(N)=O)NC(=O)[C@@H]1CCCN1C(=O)[C@H](CCCCN)NC(=O)[C@@H]1CCCN1C(=O)[C@@H](N)CCCNC(=N)N)C(=O)N[C@@H](CCS(C)(=O)=O)C(N)=O` [Homspera®, [Sar^9, Met(O)2^11]-substance P], the toxicity entry in series [2] is listed as “no apparent toxicity”.

For the compound `CC(=O)NC1(c2ccccc2)CCN(CC[C@H](CN(C)C(=O)c2ccccc2)c2ccc(Cl)c(Cl)c2)CC1` [SR48968], the “effect of receptor antagonist on substance P-enhanced platelet colony formation” value in series [1] is “no effect on substance P activity”.

“Arg Pro Lys Pro Gln Gln Phe Phe Gly Leu Met [substance P]”: in series [3], the “CFU-E colony formation, enhancement from control values” is reported as “about 70%”. For the same compound, in series [4], the “BFU-E colony formation, increase from control values” is listed as roughly 60%. Further, the “concentration at which effective on platelet precursors” value in series [1] was 10^−8 M.

The record behind these values is patent publication US20090028834A1 (priority 2007, published 2009).
